{"source": "patent US20050000154A1", "about": "“Apparatus and methods for enhanced plant and lawn growth using alkane injection” (Global BioSciences, Inc., priority 2001, published 2005)", "key": {"[1]": {"tested_on": "sweet corn, variety Sugar Dots", "conditions": "for Seedling Height: two seedlings", "method": "(§1) The tubing intersected the vessel through the diameter at a height of 3.5 cm above the base. […] Each vessel was filled with approximately 902 cm^3 of Iowa Crop Soil (soil depth =9.5 cm) that had been collected from an Iowa commercial cornfield. The soil in each vessel was tested for pH using a Chemetrics pH meter dipped in a mixture of 40 ml distilled water and 100 grams of soil.\n(§2) Each vessel was seeded with two seeds of sweet corn, variety Sugar Dots, (using the seed positions shown in FIG. 9) placed at a depth of 2.54 cm below soil surface. Each vessel was then watered with 100 ml spring water and positioned on its own drainage tray on a shelf approximately 10 cm below three 33 watt grow light tubes (no sunlight) equipped with a timer set for 16 hours light on, 6 hours light off. White reflective covering was placed on the wall immediately behind the samples, with an aluminum foil hood extending over the light fixture to reflect light downward onto the vessels."}, "[2]": {"tested_on": "sunflower (Sun Gold-Golden Yellow Double) seed", "conditions": "for Seedling Height / germination: sterilized Caribbean Beach Sand", "method": "Four vessels were filled with approximately 800 cm^3 of Paver Construction Sand (non-sterile) and two vessels contained sterilized Caribbean beach sand (see FIG. 23).\n(§3) Each vessel contained one sunflower (Sun Gold-Golden Yellow Double) seed placed at a depth of 5.0 cm below soil surface. Each vessel was then watered with 100 ml spring water and positioned on its own drainage tray on a shelf approximately 60 cm below two 33 watt grow light tubes (no sunlight) equipped with a timer set for 16 hours light on, 6 hours light off."}, "Gladioli bulb [3]": {"tested_on": "Gladioli bulb", "method": "Each vessel was filled with approximately 800 cm^3 of Pro-Mix® Potting Soil (see FIGS. 20 and 21).\nas §3, with “Gladioli bulb” for “sunflower (Sun Gold-Golden Yellow Double) seed”, “10” for “5.0”"}, "[4]": {"tested_on": "sweet corn, variety Sugar Dots", "conditions": "for Seedling Height: two seedlings", "method": "as §1, with “1.5” for “3.5”, “523” for “902”, “=5.5” for “=9.5”\nas §2, with “placed (illustrated” for “(using the seed positions shown”, “9)” for “9) placed”, “two” for “three”", "remark": "listed apart in the source"}, "Gladioli bulb [5]": {"tested_on": "Gladioli bulb", "conditions": "liquid butane injected into the rhizosphere, halted Day 19", "method": "Each vessel was filled with approximately 800 cm^3 of Pro-Mix® Potting Soil 214.\nas §3, with “Gladioli bulb 216” for “sunflower (Sun Gold-Golden Yellow Double) seed”, “10” for “5.0”, “surface. FIG. 21 is a photograph showing the bulbs and vessels.” for “surface.”"}, "[6]": {"conditions": "Table 7 Day No. 6 (final day), Butane Bulb 1 and 2"}}, "note": "Several values for one entry are separate records, joined by “and”; a condition that tells them apart may be missing. Identical values can stand only once. Like-named read-outs stand apart in the source and are kept apart here."}
{"smiles": "CCCC", "note": "[Butane, n-butane]", "values": [{"measurement": "average height taller than the control corn plant", "setting": "[1]; Day 16", "value": 55, "unit": "%"}, {"measurement": "average growth in height", "setting": "[1]; Day 16, average of two plants", "value": 23.3, "unit": "cm"}, {"measurement": "Seedling Height", "setting": "[1]; Day No. 5", "value": "0.5 cm and 1.0 cm"}, {"measurement": "Seedling Height", "setting": "[1]; Day No. 6", "value": "3.0 cm, 3.0 cm"}, {"measurement": "Seedling Height", "setting": "[1]; Day No. 7", "value": "4.0 cm, 4.0 cm"}, {"measurement": "Seedling Height", "setting": "[1]; Day No. 8", "value": "6.0 cm and 5.7 cm"}, {"measurement": "Seedling Height", "setting": "[1]; Day No. 9", "value": "8.0 cm and 7.2 cm"}, {"measurement": "Seedling Height", "setting": "[1]; Day No. 10", "value": "11.0 cm and 9.1 cm"}, {"measurement": "Seedling Height", "setting": "[1]; Day No. 11", "value": "16.0 cm and 12 cm"}, {"measurement": "Seedling Height", "setting": "[1]; Day No. 12", "value": "18.0 cm and 15.5 cm"}, {"measurement": "Seedling Height", "setting": "[1]; Day No. 13", "value": "19.0 cm and 16.7 cm"}, {"measurement": "Seedling Height", "setting": "[1]; Day No. 14", "value": "20.1 cm and 17.3 cm"}, {"measurement": "Seedling Height", "setting": "[1]; Day No. 15", "value": "22.0 cm and 18.0 cm"}, {"measurement": "Seedling Height", "setting": "[1]; Day No. 16", "value": "27.0 cm and 19.6 cm"}, {"measurement": "time of sprouting compared with control plant", "setting": "[1]; in vivo", "value": "three days earlier"}, {"measurement": "stem thickness", "setting": "[1]; last day of growth (Day 16), taller plant, shorter plant", "value": "0.5 cm and 0.3 cm"}, {"measurement": "average growth rate", "setting": "[1]; over the sixteen-day period, average of two plants", "value": 1.45, "unit": "cm per day"}, {"measurement": "root branch length", "setting": "[1]; seen through clear vessels", "value": "up to 3 cm"}, {"measurement": "faster growth rate than the control plant", "setting": "[1]; sixteen-day period", "value": 54, "unit": "%"}, {"measurement": "seed sprouting", "setting": "[1]; two seeds planted", "value": "sprouted into seedlings"}, {"measurement": "root development compared with control plant", "setting": "[2]; Day 23, Paver Sand, unearthed", "value": "thicker and more robust"}, {"measurement": "Seedling Height", "setting": "[2]; Day No. 23, Paver Sand (non-sterile), two plants", "value": 20.0, "unit": "cm"}, {"measurement": "Seedling Height / germination", "setting": "[2]; Day No. 23", "value": "no seed growth or"}, {"measurement": "Seedling Height / germination", "setting": "[2]; Day No. 23, listed as butane", "value": "No seed growth or germination"}, {"measurement": "Seedling Height, secondary shoot", "setting": "Gladioli bulb [3]; Table 7 Day No. 1, Butane Bulb 2", "value": "Secondary shoot 3.0 cm"}, {"measurement": "Seedling Height, main shoot", "setting": "Gladioli bulb [3]; [6]", "value": "27.0 cm and 29.0 cm"}, {"measurement": "Seedling Height, secondary shoot", "setting": "Gladioli bulb [3]; [6]", "value": "14.0 cm and 23.0 cm"}, {"measurement": "root development compared with control plant", "setting": "Gladioli bulb [3]; butane enrichment for 17 days, bulbs unearthed", "value": "greater"}, {"measurement": "bulb shoot bifurcation", "setting": "Gladioli bulb [3]; butane gas injection, shoots directly from the bulb sphere", "value": "conditioned to grow two plants"}, {"measurement": "Seedling Height", "setting": "[4]; Day No. 6, n-butane injected into root zone", "value": "0.5 cm and 0.8 cm"}, {"measurement": "Seedling Height", "setting": "[4]; Day No. 7", "value": "4.0 cm and 4.5 cm"}, {"measurement": "Seedling Height", "setting": "[4]; Day No. 8", "value": "7.0 cm and 6.0 cm"}, {"measurement": "Seedling Height", "setting": "[4]; Day No. 9 (final day)", "value": "11.0 cm and 6.8 cm"}, {"measurement": "Seedling Height", "setting": "[4]; Day No. 9 (final day), listed as butane", "value": "11 cm and 6.8 cm"}, {"measurement": "root spread compared with control plants", "setting": "[4]; seen through clear vessels", "value": "greater and more complex degree horizontally"}, {"measurement": "effect of liquid butane injection on growing plants", "setting": "Gladioli bulb [5]; listed as Liquid butane", "value": "into the rhizosphere killed the"}, {"measurement": "effect of liquid butane injection on growing plants", "setting": "Gladioli bulb [5]; listed as liquid butane", "value": "killed"}]}
